Data taken from PMC10525570, “Antiviral Activity of Anthranilamide Peptidomimetics against Herpes Simplex Virus 1 and a Coronavirus” (Antibiotics, 2023).
“Also recorded” adds a separate entry of the source. Like-named read-outs stand apart in the source and are kept apart here.

Legend:
HSV-1 [1] = experiment: Virus pre-treatment (direct virus inactivation) plaque assay, HSV-1; format: cell-based, herpes simplex virus 1
Description: (§1) The peptidomimetics were evaluated for their antiviral activity using three different assays: virus pre-treatment, cell pre-treatment, and post-treatment assays, with the main distinction being the timing of the compound addition. Cells were seeded in 24-well plates at a density of 2.5 × 10^5 cells/well and incubated for 48 h at 37 °C. In all assays, the compounds were added to DMEM medium in the absence of fetal bovine serum (FBS). All experiments were performed in duplicate with two independent replicates. The inhibitory effect on viral infectivity was determined by comparing the number of plaques in wells treated with the test compounds (peptidomimetics) to the plaques observed in the control wells (cells infected with the virus without test compounds).
(§2) Virus pre-treatment assay: In this assay, the test compounds were added to the virus (1 × 10^3 PFU/mL) and incubated for 3 h at 37 °C. After incubation, each mixture (virus/peptide) was diluted in DMEM medium containing 10% FBS to neutralize the peptides or mimics. The dilutions were then added to the cell monolayers for 1 h, followed by the addition of an agar overlay containing 1% agar. The cells were further incubated for 72 h, after which they were fixed, stained, and the number of plaques was counted.

MHV-1 [2] = experiment: Virus pre-treatment (direct virus inactivation) plaque assay, MHV-1; format: cell-based, Murine hepatitis virus 1; conditions: for Plaque formation, MHV-1: quadruplicate
Description: as §1, §2

[3] = MTT cytotoxicity assay, A9 cells; format: cell-based; conditions: mouse, read-out: MHV-1 (A9 Cells) CC50
Description: (§3) The MTT assay was used to assess the cytotoxicity of compounds against the viral host (A9 and Vero) cells. This assay relies on the reduction of the yellow MTT compound to a dark blue formazan product by viable and metabolically active cells. Viral host cells were cultured in 96-well plates and incubated at 37 °C in a 5% CO2 atmosphere, treated with various concentrations of the test compounds together with further incubation for 24 h. After incubation, 100 μL of a 5 mg/mL MTT solution was added to each well and incubated for 2–4 h at 37 °C. The supernatant was then discarded, and 100 μL of 100% DMSO was added to dissolve the formazan salts with vigorous agitation for 10 min at room temperature. The absorbance at 540 nm was measured using a spectrophotometer. Cytotoxicity was determined by comparing the absorbance values in the test and control wells expressed as a percentage. A total of 100 μL DMSO was used for negative control (ctr−), while 100 μL of culture medium represented the positive control (ctr+). All experiments were repeated three times, and the mean values with standard deviations are reported. Nonlinear regression analysis was performed using GraphPad Prism software to determine the CC50 (concentration at which 50% of cells are killed).

[4] = MTT cytotoxicity assay, Vero cells; format: cell-based; conditions: African green monkey, read-out: HSV-1 (Vero Cells) CC50
Description: as §3

MHV-1 [5] = experiment: Post-viral infection plaque assay, MHV-1 on A9 cells; format: cell-based, Murine hepatitis virus 1; conditions: compound added 3 h post-infection, 15.625, 7.5, 3.75 µM
Description: (§4) In order to determine if compounds 11 and 14 were able to inhibit aspects of viral infection after the initial binding stage to host mammalian cells, the same concentrations of the compounds were administered to the cells after a 3-h interval post-infection.
as §1
(§5) Post-viral infection assay: The cells were first incubated with viruses (1 × 10^3 PFU/mL) for 3 h at 37 °C to ensure complete cellular entry. Following that, the test compounds were added and incubated for 24 h at 37 °C. […] The cells were then fixed, stained, and the number of plaques was determined.

MHV-1 [6] = experiment: Cell pre-treatment plaque assay, MHV-1 on A9 cells; format: cell-based, Murine hepatitis virus 1; conditions: A9 cells preincubated 24 h with 15.625, 7.5, 3.75 µM before infection
Description: (§6) In order to explore additional potential mechanisms, the ability of compounds 11 and 14 to reduce the ability of the two viruses to bind to their respective mammalian host cells was examined. Three concentrations (15.625 µM, 7.5 µM, and 3.75 µM) of compounds 11 and 14, all below their cytotoxic thresholds, were allowed to interact with A9 and Vero cells for 24-h before virus infection. The impact of these interactions was assessed using a plaque assay to determine inhibitory effects.
as §1, with “All experiments were performed in duplicate with two independent replicates.” left out
(§7) Cell pre-treatment assay: The cells were treated with the test compounds and incubated for 24 h at 37 °C. […] The cells were then fixed, stained, and the number of plaques was determined.

HSV-1 [7] = experiment: Transmission electron microscopy of treated HSV-1; parameters: species or system herpes simplex virus 1; conditions: virus treated at 37 °C for 2 h
Description: (§8) The viruses were treated with compound 11 for MHV-1 and 14 for HSV-1, both at 37 °C for 2 h. Subsequently, 10 µL of the treated mixture was placed on a glow-discharged carbon-coated 200 mesh copper grid and allowed to evaporate for 5 min. The sample was then stained with 1% phosphotungstic acid (pH 6.5) for 30 s to improve the contrast. After air-drying, the grids were examined using an FEI Tecnai G2 20 TEM machine.

HSV-1 [8] = experiment: Post-viral infection plaque assay, HSV-1 on Vero cells; format: cell-based, herpes simplex virus 1; conditions: compound added 3 h post-infection, 15.625, 7.5, 3.75 µM
Description: as §4, §1, §5

HSV-1 [9] = experiment: Cell pre-treatment plaque assay, HSV-1 on Vero cells; format: cell-based, herpes simplex virus 1; conditions: Vero cells preincubated 24 h with 15.625, 7.5, 3.75 µM before infection
Description: as §6
as §1, with “All experiments were performed in duplicate with two independent replicates.” left out
as §7

MHV-1 [10] = experiment: Transmission electron microscopy of treated MHV-1; parameters: species or system Murine hepatitis virus 1; conditions: virus treated at 37 °C for 2 h
Description: as §8

[11] = Human alphaherpesvirus 1, virus pre-treatment 3 h at 37 °C, plaque assay, read-out: HSV-1 IC50
[12] = Murine coronavirus, virus pre-treatment 3 h at 37 °C, plaque assay, read-out: MHV-1 IC50
[13] = Human alphaherpesvirus 1, Table 2, Vero cells, read-out: HSV-1 (Vero Cells) IC50
[14] = Murine coronavirus, Table 2, A9 cells, read-out: MHV-1 (A9 Cells) IC50

SMILES | IC50 (HSV-1 [1]; [11]) [µM] | IC50 (MHV-1 [2]; [12]) [µM] | IC50 (HSV-1 [1]; [13]) [µM] | IC50 (MHV-1 [2]; [14]) [µM] | further results
COc1ccc(NC(=O)c2ccc3ccccc3c2)c(C(=O)NC(Cc2c[nH]c3ccccc23)C(=O)NCCNC(=N)N)c1 (stereo not shown) [Compound 10] | > 62.5 | > 62.5 |  |  | 
NCCCCC(N)C(=O)NCCNC(=O)C(Cc1c[nH]c2ccccc12)NC(=O)c1cc(Br)ccc1NC(=O)c1ccc(-c2ccccc2)cc1 (stereo not shown) [Compound 16] | > 62.5 | 22.5 | > 62.5 | 22.6 | CC50 at 24 h [3]: 81.6 µM
COc1ccc(NC(=O)c2ccc3ccccc3c2)c(C(=O)NC(Cc2c[nH]c3ccccc23)C(=O)NCCN)c1 (stereo not shown) [Compound 5] | > 62.5 | > 62.5 |  |  | 
N=C(N)NCCNC(=O)C(Cc1c[nH]c2ccccc12)NC(=O)c1cc(Br)ccc1NC(=O)c1ccc2ccccc2c1 (stereo not shown) [Compound 7] | 32.7 | > 62.5 | 32.8 | > 62.5 | CC50 at 24 h [4]: 127 µM
N=C(N)NCCNC(=O)C(Cc1c[nH]c2ccccc12)NC(=O)c1cc(F)ccc1NC(=O)c1ccc2ccccc2c1 (stereo not shown) [Compound 8] | > 62.5 | > 62.5 |  |  | 
N=C(N)NCCNC(=O)C(Cc1c[nH]c2ccccc12)NC(=O)c1ccccc1NC(=O)c1ccc2ccccc2c1 (stereo not shown) [Compound 6] | > 62.5 | > 62.5 |  |  | 
COc1ncc(-c2ccc(N)c(C(=O)NC(Cc3c[nH]c4ccccc34)C(=O)NCCN)c2)c(OC)n1 (stereo not shown) [Compound 13] | > 62.5 | > 62.5 |  |  | 
NCCNC(=O)C(Cc1c[nH]c2ccccc12)NC(=O)c1cc(F)ccc1NC(=O)c1ccc2ccccc2c1 (stereo not shown) [Compound 3] | > 62.5 | > 62.5 |  |  | 
NCCNC(=O)C(Cc1c[nH]c2ccccc12)NC(=O)c1cc(-c2ccccc2-c2ccccc2)ccc1N (stereo not shown) [Compound 14] | 13 | 6.3 | 13 | 6.3 | Antiviral activity against MHV-1, post-infection treatment (MHV-1 [5]): no noticeable antiviral activity; also recorded: Neither of the compounds was able to affect viral replication; Plaque formation, HSV-1 (HSV-1 [1]; HSV-1 treated with 31.25 µM): complete inhibition of plaque formation; Plaque formation, HSV-1 (HSV-1 [1]; HSV-1 treated with 62.5 µM, four replicates): complete inhibition of plaque formation; inhibition at 13 µM (HSV-1 [1]; Human alphaherpesvirus 1, at 13 µM): > 50%; Inhibition of MHV-1 infection, cell pre-treatment (MHV-1 [6]): none of the compounds could inhibit virus infection; also recorded: Neither of the compounds was able to affect viral replication; Effect on HSV-1 viral envelope (TEM) (HSV-1 [7]): partial disruption of the HSV-1 envelope; also recorded: partial destruction of the HSV-1 envelope; CC50 at 24 h [3]: 10.2 µM; Antiviral activity against HSV-1, post-infection treatment (HSV-1 [8]): no noticeable antiviral activity; also recorded: Neither of the compounds was able to affect viral replication; Inhibition of HSV-1 infection, cell pre-treatment (HSV-1 [9]): none of the compounds could inhibit virus infection; also recorded: Neither of the compounds was able to affect viral replication; CC50 at 24 h [4]: 15.2 µM
NCCNC(=O)C(Cc1c[nH]c2ccccc12)NC(=O)c1cc(-c2ccc(-c3ccccc3)cc2)ccc1N (stereo not shown) [Compound 12] | > 62.5 | > 62.5 |  |  | 
NCCNC(=O)C(Cc1c[nH]c2ccccc12)NC(=O)c1cc(-c2ccc3ccccc3c2)ccc1N (stereo not shown) [Compound 11] |  |  | 34.9 | 2.18 | Antiviral activity against MHV-1, post-infection treatment (MHV-1 [5]): no noticeable antiviral activity; also recorded: Neither of the compounds was able to affect viral replication; IC50 (HSV-1 [1]; Human alphaherpesvirus 1, read-out: HSV-1 IC50): 34.9 µM; Inhibition of MHV-1 infection, cell pre-treatment (MHV-1 [6]): none of the compounds could inhibit virus infection; also recorded: Neither of the compounds was able to affect viral replication; CC50 at 24 h [3]: 20.5 µM; Effect on MHV-1 viral envelope (TEM) (MHV-1 [10]): disrupted viral envelope; also recorded: complete disruption of the viral envelope; Antiviral activity against HSV-1, post-infection treatment (HSV-1 [8]): no noticeable antiviral activity; also recorded: Neither of the compounds was able to affect viral replication; Plaque formation, MHV-1 (MHV-1 [2]; MHV-1 treated with 31.25 µM): complete inhibition of plaque formation; Plaque formation, MHV-1 (MHV-1 [2]; MHV-1 treated with 62.5 µM): complete inhibition of plaque formation; IC50 (MHV-1 [2]; Murine coronavirus, read-out: MHV-1 IC50): 2.38 µM; inhibition at 2.18 µM (MHV-1 [2]; Murine coronavirus, at 2.18 µM): > 50%; Inhibition of HSV-1 infection, cell pre-treatment (HSV-1 [9]): none of the compounds could inhibit virus infection; also recorded: Neither of the compounds was able to affect viral replication; CC50 at 24 h [4]: 16.7 µM
NCCCCC(N)C(=O)NCCNC(=O)C(Cc1c[nH]c2ccccc12)NC(=O)c1cc(Br)ccc1NC(=O)c1ccc2ccccc2c1 (stereo not shown) [Compound 15] | > 62.5 | 11.1 | > 62.5 | 11.1 | CC50 at 24 h [3]: 62.7 µM
NCCNC(=O)C(Cc1c[nH]c2ccccc12)NC(=O)c1cc(Cl)ccc1NC(=O)c1ccc2ccccc2c1 (stereo not shown) [Compound 4] | > 62.5 | > 62.5 |  |  | 
NCCCCC(N)C(=O)NCCNC(=O)C(Cc1c[nH]c2ccccc12)NC(=O)c1cc(Br)ccc1NC(=O)c1cccc(-c2ccccc2)c1 (stereo not shown) [Compound 17] | > 62.5 | 11.8 | > 62.5 | 11.8 | CC50 at 24 h [3]: 114 µM
NCCNC(=O)C(Cc1c[nH]c2ccccc12)NC(=O)c1ccccc1NC(=O)c1ccc2ccccc2c1 (stereo not shown) [Compound 1] | > 62.5 | > 62.5 |  |  | 
NCCNC(=O)C(Cc1c[nH]c2ccccc12)NC(=O)c1cc(Br)ccc1NC(=O)c1ccc2ccccc2c1 (stereo not shown) [Compound 2] | > 62.5 | > 62.5 |  |  | 
N=C(N)NCCNC(=O)C(Cc1c[nH]c2ccccc12)NC(=O)c1cc(Cl)ccc1NC(=O)c1ccc2ccccc2c1 (stereo not shown) [Compound 9] | 14.8 | > 62.5 | 14.9 | > 62.5 | CC50 at 24 h [4]: 45 µM
